Results reported in ChEMBL document CHEMBL4393673, “Design, synthesis and biological evaluation of pyridine-chalcone derivatives as novel microtubule-destabilizing agents” (Eur J Med Chem, 2019).

Columns and labels:
[1] = tested on: H22; assay: Antitumor activity against mouse H22 cells allografted in ICR mouse assessed as reduction in tumour weight at 20 mg/kg, iv administered once per day for 21 days relative to control; assay type: functional; details: 504 h
[2] = Toxicity in ICR mouse allografted with mouse H22 cells assessed as body weight loss at 6 mg/kg, iv administered once per 2 days for 21 days; assay type: organism-based; details: in vivo
[3] = tested on: H22; assay: Antitumor activity against mouse H22 cells allografted in ICR mouse assessed as reduction in tumour weight at 6 mg/kg, iv administered once per 2 days for 21 days relative to control; assay type: functional
[4] = biological target: T1, Tubulin (Sus scrofa) (UniProt P02554+P02550); assay: Inhibition of [3H]colchicine binding to biotinylated porcine tubulin at 1 uM in presence of GTP after 2 hrs by scintillation proximity assay relative to control; assay type: protein assay
T1 sequence (P02550 whole entry, looked up): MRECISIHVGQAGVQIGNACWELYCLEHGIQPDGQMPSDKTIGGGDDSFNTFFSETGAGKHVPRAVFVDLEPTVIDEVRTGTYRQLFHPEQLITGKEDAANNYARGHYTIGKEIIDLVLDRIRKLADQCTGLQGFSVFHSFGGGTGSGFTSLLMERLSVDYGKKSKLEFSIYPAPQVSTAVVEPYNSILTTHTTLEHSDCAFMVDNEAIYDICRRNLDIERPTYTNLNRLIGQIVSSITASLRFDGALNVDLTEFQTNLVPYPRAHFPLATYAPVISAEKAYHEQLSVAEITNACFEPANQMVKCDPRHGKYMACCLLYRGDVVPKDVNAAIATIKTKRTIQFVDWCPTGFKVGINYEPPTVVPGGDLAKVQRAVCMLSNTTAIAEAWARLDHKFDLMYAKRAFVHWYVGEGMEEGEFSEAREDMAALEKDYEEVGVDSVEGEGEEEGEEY
T1 sequence (P02554 whole entry, looked up): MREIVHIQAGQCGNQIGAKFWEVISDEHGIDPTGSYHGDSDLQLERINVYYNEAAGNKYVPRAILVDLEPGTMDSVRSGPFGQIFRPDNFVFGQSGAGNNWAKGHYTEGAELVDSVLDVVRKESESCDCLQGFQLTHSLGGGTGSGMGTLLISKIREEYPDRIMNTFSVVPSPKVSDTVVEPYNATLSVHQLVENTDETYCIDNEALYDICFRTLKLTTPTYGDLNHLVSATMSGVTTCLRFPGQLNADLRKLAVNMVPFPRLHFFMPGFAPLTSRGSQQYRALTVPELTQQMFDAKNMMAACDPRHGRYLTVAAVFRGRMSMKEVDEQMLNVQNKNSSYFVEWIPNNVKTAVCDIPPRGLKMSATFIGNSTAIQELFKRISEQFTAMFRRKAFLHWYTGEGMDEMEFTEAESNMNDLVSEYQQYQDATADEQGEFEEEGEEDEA

[5] = biological target: Tubulin; assay: Inhibition of tubulin polymerization (unknown origin) in presence of GTP measured after 60 mins by spectrophotometric method; assay type: protein-complex assay, Homo sapiens
[6] = biological target: T1, Tubulin (Sus scrofa); assay: Inhibition of [3H]colchicine binding to biotinylated porcine tubulin at 5 uM in presence of GTP after 2 hrs by scintillation proximity assay relative to control; assay type: protein assay
[7] = tested on: L02; assay: cells; details: Homo sapiens, L02, 72 h
Description: Cytotoxicity against human LO2 cells assessed as reduction in cell viability after 72 hrs by MTT assay

[8] = Antiproliferative activity against […] cells assessed as reduction in cell viability after 72 hrs by MTT assay; assay type: functional, cell-based; details: H22, 72 h
[9] = tested on: K562; assay: Antiproliferative activity against human K562 cells assessed as reduction in cell viability after 72 hrs by MTT assay; assay type: functional, cell-based; details: K562, 72 h
[10] = biological target: T2, Tubulin (Homo sapiens) (UniProt P68371+Q9H4B7+P0DPH7+P68366+Q13509+Q71U36+P04350+Q3ZCM7+P07437+P68363+Q9BQE3+Q6PEY2+Q13885+Q9BVA1+Q9BUF5); assay: Inhibition of tubulin polymerization in human K562 cells assessed as disruption of cytosolic microtubule networks after 24 hrs by DAPI staining based immunofluorescence microscopic method; assay type: cell-based
[11] = biological target: T2, Tubulin (Homo sapiens); assay: Inhibition of tubulin polymerization in human MDA-MB-231 cells assessed as disruption of cytosolic microtubule networks after 24 hrs by DAPI staining based immunofluorescence microscopic method; assay type: cell-based
[12] = tested on: HCT-8; assay: Antiproliferative activity against human HCT8 cells assessed as reduction in cell viability after 72 hrs by MTT assay; assay type: functional, cell-based; details: HCT-8, 72 h
[13] = tested on: MDA-MB-231; assay: cells; details: Homo sapiens, MDA-MB-231, 72 h
Description: Antiproliferative activity against human MDA-MB-231 cells assessed as reduction in cell viability after 72 hrs by MTT assay

[14] = tested on: KB; assay: Antiproliferative activity against human KB cells assessed as reduction in cell viability after 72 hrs by MTT assay; assay type: functional, cell-based

Row | inhibition [4] | IC50 [5] | inhibition [6] | Structure (SMILES) | inhibition in vivo at 20 mg/kg [1] | IC50 [8] | also measured
1 | – | – | – | COc1ccc(/C=C\c2cc(OC)c(OC)c(OC)c2)cc1OP(=O)(O)O [FOSBRETABULIN DISODIUM] | 62.7% | – | –
2 | – | – | – | CC(=O)O[C@H]1C(=O)[C@@]2(C)[C@H]([C@H](OC(=O)c3ccccc3)[C@]3(O)C[C@H](OC(=O)[C@H](O)[C@@H](NC(=O)c4ccccc4)c4ccccc4)C(C)=C1C3(C)C)[C@]1(OC(C)=O)CO[C@@H]1C[C@@H]2O [PACLITAXEL] | – | – | Activity [2]: Toxic; inhibition in vivo at 6 mg/kg [3]: 72.7%
3 | 70.2% | 3.05 µM | 78.3% | COc1ccc(/C=C/C(=O)c2cc(OC)c(OC)c(OC)c2)cc1O | – | 0.132 µM | IC50 [7]: 0.421 µM; IC50 [9]: 0.068 µM
4 | 75.1% | 2.08 µM | 87.9% | COc1cc(C(=O)/C(C)=C/c2ccc(OC)c(O)c2)cc(OC)n1 | – | – | Activity [10]: Dose-dependent effect; Activity [11]: Dose-dependent effect
5 | – | – | – | COc1ccc(/C=C\c2cc(OC)c(OC)c(OC)c2)cc1O [COMBRETASTATIN A4] | 50.9% | 0.008 µM | IC50 [12]: 0.01 µM; IC50 [13]: 0.01 µM; IC50 [14]: 0.011 µM
